Assays:
[1] = tested on: OVCA-420; assay: Surface MHC-I (HLA-ABC) expression by flow cytometry, OVCA-420; assay type: cell-based, human
Method: SK-OV-3 and OVCA-420 (MHC-I^high), and OAW42 and PA-1 (MHC-I^low) ovarian cancer lines were cultured in complete culture media (RPMI-1640+10% FBS). The cells were plated at 12,500-100,000 cells/well in 6-well tissue culture plate and complete culture media. After 24 hours, the cells were starved overnight in DMEM high glucose medium without FBS. Next, the starving media was replaced with culture media only (DMEM+2% FBS), 10 ng/mL rhTGFβ1 (Cat #PHG9204, Thermo Fisher, CA), 10 ng/mL rhTGFβ1+10 μM Galunisertib (Cat #S2230, SelleckChem, TX) or 5 ng/mL recombinant IFNγ (Cat #554617, BD Biosciences, CA) for 96 h at 37° C. Cells were then stained and analysed by flow cytometry. The “percentage of untreated” was calculated using this formula: [Geo Mean Fluorescence Intensity (IFNγ-treated cells)/Geo Mean Fluorescence Intensity (untreated cells)]×100. In order to see if MHC-I expression can be regulated by methylation, two MHC-I^low lines OAW42 and PA-1 were plated at 250,000-500,000 cells/dish in 10-cm dish and serum starved as described above for TGFβ1 treatment. 10 μM and 1 μM 5-Aza-2′-deoxycytidine (5-Aza, Cat #A2385, Sigma-Aldrich) demethylating agent in culture media was used to treat OAW42 and PA-1, respectively, for 96 h prior to FACS analysis. Media was half-replenished with fresh 5-Aza 48 hours after treatment to keep concentration consistent.
Before staining, Fc receptors were blocked for 10 min at room temperature using FcR blocking reagent human (Cat #130-059-901, Miltenyi Biotec, CA). Cells were stained during the blocking step with the LIVE/DEAD™ Fixable Near-IR Dead Cell (Cat #L10119, Invitrogen, CA). Then, cells were incubated at room temperature for 15 min with anti-human HLA-ABC-PE (Cat #560168, BD Biosciences, CA) or isotype control mouse IgG1κ-PE (Cat #556650, BD Biosciences) antibodies, washed and samples were acquired on BD LSRFortessa™ flow cytometer.

[2] = tested on: SMAD2/3; assay: p-SMAD2/3 Western blot assay in PHBF fibroblasts; assay type: cell-based, human; details: 30 min
Method: PHBF cells were plated at 100,000 cells/well in a 24-well cell culture plate overnight, serum starved for 24 h and then cultured in serum-free DMEM with indicated concentration of […] with or without Galunisertib for 30 min. Cells were lysed in protein lysis buffer containing T-PER tissue protein extraction reagent (ThermoFisher, #78510), cOmplete™ Protease Inhibitor Cocktail (Sigma-Aldrich, #11697498001) and PhosSTOP™ phosphatase inhibitor cocktails (Sigma-Aldrich, #4906845001). Total protein was diluted and normalized to 0.5 μg/μL with 4×LDS Sample Buffer (ThermoFisher, #84788). 10 ug of total protein was loaded into each well of a NuPAGE 4-12% Bis-Tris Midi Gel (Invitrogen), followed by protein transfer from gel to the membrane using Trans-Blot Turbo (Bio-Rad). […] Briefly, the membrane was blocked for 1 h, incubated with Phospho-Smad2 antibodies overnight at 4° C. ([…], 1:200, Cell Signaling #3108, clone138D4), washed and incubated with secondary antibodies goat anti-rabbit. To analyse the total Smad2/3, the membrane was stripped and then incubated with Smad2/3 antibodies (1:1000, Cell Signaling #8685).

[3] = tested on: primary human fibroblasts; assay: Proliferation assay (CellTiter-Glo) of primary human fibroblasts; assay type: cell-based; details: ovary, bladder and colon fibroblasts, 72 h
Method: (§1) The primary normal fibroblast PHBF (Bladder), CCD-18Co (Colon) and HOF (Ovary) were serum-starved overnight before treatment with media only (untreated), 10 ng/mL rhTGFβ1 or 10 ng/mL rhTGFβ1+10 μM Galunisertib for 24 hours and total RNA was extracted for RNA-seq analysis. To detect IL-6 protein in the supernatant, cells were treated for 48 hours with rhTGFβ1. After the 48 h, the supernatant was collected and analysed by Luminex using the Millipore kit. For the proliferation assay, PHBF, CCD-18Co, HOF were plated at 3,000 cells/well in a 96-well culture flat bottom plate for immunofluorescent assays (Corning, #3917) overnight. Cells were then cultured for 72 hours in DMEM high glucose+1% FBS with indicated concentration of TGFβ1 with or without Galunisertib. Next, CellTiter-Glo® reagents (Promega, G7570) were added to each well and luminescence signal was read with a microplate reader.

[4] = tested on: primary human fibroblasts; assay: RNA-seq transcriptional response of primary human fibroblasts; assay type: cell-based; details: 10 ng/mL rhTGFβ1, 24 h
Method: as §1

[5] = tested on: IL-6; assay: IL-6 protein in fibroblast supernatant by Luminex; assay type: cell-based, human; details: rhTGFβ1, 48 h
Method: as §1

[6] = tested on: OAW42; assay: Surface MHC-I (HLA-ABC) expression by flow cytometry, OAW42; assay type: cell-based, human; details: 96 h
Method: (§2) SK-OV-3 and OVCA-420 (MHC-I^high), and OAW42 and PA-1 (MHC-I^low) ovarian cancer lines were cultured in complete culture media (RPMI-1640+10% FBS). The cells were plated at 12,500-100,000 cells/well in 6-well tissue culture plate and complete culture media. After 24 hours, the cells were starved overnight in DMEM high glucose medium without FBS. Next, the starving media was replaced with culture media only (DMEM+2% FBS), 10 ng/mL rhTGFβ1 (Cat #PHG9204, Thermo Fisher, CA), 10 ng/mL rhTGFβ1+10 μM Galunisertib (Cat #S2230, SelleckChem, TX) or 5 ng/mL recombinant IFNγ (Cat #554617, BD Biosciences, CA) for 96 h at 37° C. Cells were then stained and analysed by flow cytometry. The “percentage of untreated” was calculated using this formula: [Geo Mean Fluorescence Intensity (IFNγ-treated cells)/Geo Mean Fluorescence Intensity (untreated cells)]×100. […] Media was half-replenished with fresh 5-Aza 48 hours after treatment to keep concentration consistent. Before staining, Fc receptors were blocked for 10 min at room temperature using FcR blocking reagent human (Cat #130-059-901, Miltenyi Biotec, CA). Cells were stained during the blocking step with the LIVE/DEAD™ Fixable Near-IR Dead Cell (Cat #L10119, Invitrogen, CA). […]

[7] = tested on: PA-1; assay: Surface MHC-I (HLA-ABC) expression by flow cytometry, PA-1; assay type: cell-based, human; details: 96 h
Method: as §2

[8] = tested on: SK-OV-3; assay: Surface MHC-I (HLA-ABC) expression by flow cytometry, SK-OV-3; assay type: cell-based, human; details: 96 h
Method: SK-OV-3 and OVCA-420 (MHC-I^high), and OAW42 and PA-1 (MHC-I^low) ovarian cancer lines were cultured in complete culture media (RPMI-1640+10% FBS). The cells were plated at 12,500-100,000 cells/well in 6-well tissue culture plate and complete culture media. After 24 hours, the cells were starved overnight in DMEM high glucose medium without FBS. Next, the starving media was replaced with culture media only (DMEM+2% FBS), 10 ng/mL rhTGFβ1 (Cat #PHG9204, Thermo Fisher, CA), 10 ng/mL rhTGFβ1+10 μM Galunisertib (Cat #S2230, SelleckChem, TX) or 5 ng/mL recombinant IFNγ (Cat #554617, BD Biosciences, CA) for 96 h at 37° C. Cells were then stained and analysed by flow cytometry. The “percentage of untreated” was calculated using this formula: [Geo Mean Fluorescence Intensity (IFNγ-treated cells)/Geo Mean Fluorescence Intensity (untreated cells)]×100. In order to see if MHC-I expression can be regulated by methylation, two MHC-I^low lines OAW42 and PA-1 were plated at 250,000-500,000 cells/dish in 10-cm dish and serum starved as described above for TGFβ1 treatment. 10 μM and 1 μM 5-Aza-2′-deoxycytidine (5-Aza, Cat #A2385, Sigma-Aldrich) demethylating agent in culture media was used to treat OAW42 and PA-1, respectively, for 96 h prior to FACS analysis. Media was half-replenished with fresh 5-Aza 48 hours after treatment to keep concentration consistent. […]

“TGFβ1: recombinant human TGFβ1 (rhTGFβ1, Cat #PHG9204, Thermo Fisher)” was tested, and the “decrease of surface expression of MHC-I compared to the untreated cells” value ([1]; OVCA-420, 10 ng/mL rhTGFβ1, 96 h, flow cytometry) was 40.45±14.2%, the “phosphorylation level of SMAD2/3” value ([2]; TGFβ dose-dependent) was “increased” and the “proliferation of primary human fibroblasts” value [3] was “promoted proliferation”. The “expression of immune-modulatory molecules (IL11, TNFAIP6) in fibroblast cells” value [4] was “specifically induced”, the “mRNA expression of IL6 in human fibroblasts” value [4] was “specifically induced” and the “transcriptional program induced in human primary fibroblasts (ECM-related genes, reactive stroma markers)” value ([4]; ovary, bladder, colon fibroblasts) was “common 77-gene transcriptional program specifically induced”. The “IL-6 protein secretion level in the supernatant” value [5] was “dramatically increased”.

For `Nc1ncn([C@H]2C[C@H](O)[C@@H](CO)O2)c(=O)n1` [5-aza-2′-deoxycytidine], the “expression of MHC class I protein at the tumor cell surface” value ([6]; OAW42, 10 μM 5-Aza, vs DMSO) was “significantly induce” and the “expression of MHC class I protein at the tumor cell surface” value ([7]; PA-1, 1 μM 5-Aza, vs DMSO) was “significantly induce”.

For `Cc1cccc(-c2nn3c(c2-c2ccnc4ccc(C(N)=O)cc24)CCC3)n1` [Galunisertib], the “MHC class I expression in the presence of Galunisertib” value ([8]; SK-OV-3, 10 ng/mL rhTGFβ1+10 μM Galunisertib) was “restored to the untreated level”, the “MHC class I expression in the presence of Galunisertib” value ([1]; OVCA-420, 10 ng/mL rhTGFβ1+10 μM Galunisertib, 96 h) was “restored to the untreated level” and the “TGFβ pathway (SMAD2/3 phosphorylation) with Galunisertib treatment” value ([2]; TGFβ1 with Galunisertib) was “pathway inhibition”.

B1: IFNγ: recombinant IFNγ, a cytokine well established for inducing MHC-I expression (protein, UniProt P01579 24-161, looked up)
Interferon gamma: QDPYVKEAENLKKYFNAGHSDVADNGTLFLGILKNWKEESDRKIMQSQIVSFYFKLFKNFKDDQSIQKSVETIKEDMNVKFFNSNKKKRDDFEKLTNYSVTDLNVQRKAIHELIQVMAELSPAAKTGKRKRSQMLFRG
For B1, the “MHC class I protein expression on the tumor cell surface” value (“MHC class I protein expression” below) ([8]; SK-OV-3 (MHC-I high), 5 ng/mL IFNγ) was “increased”, the “MHC class I protein expression” value ([1]; OVCA-420 (MHC-I high), 5 ng/mL IFNγ, 96 h) was “increased” and the “MHC class I protein expression” value ([6]; OAW42 (MHC-I low), 5 ng/mL IFNγ) was “increased”. The “MHC class I protein expression” value ([7]; PA-1 (MHC-I low), 5 ng/mL IFNγ) was “increased”.

From US11881286B2, “CD8+ t cell based immunosuppressive tumor microenvironment detection method” (GENENTECH, INC., priority 2019, dated 2024)
